Patent US20060275816A1, “Methods for identifying drug pharmacology and toxicology” (priority 2005, published 2006)
Entries after “also recorded” stand apart in the source; their conditions may differ. Where two headings read alike, the source gives them in different places.

How the values were obtained:
HepG2 cells [1] = test: Cytotoxicity, CellTiter Blue Cell Viability Assay (LD50); type: cell-based
Description: FIG. 3 provides a graphical illustration of an experimental approach used to assess candidate compounds. (1) Cells were plated and allowed to adhere for one day. At that time various concentrations of compound were added to cells and incubated for an additional 72 hours. […] (2) Cells were plated as above and treated with compound at the predetermined LD50 concentration. Following 24 hours incubation in the presence of compound, cells were collected, RNA was harvested and 3) analyzed using the RiboChip.
In an embodiment, human hepatocellular carcinoma HepG2 cells were used to test the effect of a compound on liver biology and toxicology. […] In an embodiment, a single acute dose of a compound is used. […] The choice of high dose identifies the possible modes of toxicity and detects low-incidence responses.
Cells were maintained as recommended in Minimal Essential Medium (MEM) (Gibco-BRL, a Division of Invitrogen, Carlsbad, Calif.) with 10% fetal bovine serum (FBS, HyClone, Logan, Utah) supplemented with antibiotics in p150 plates at 37° C., 5% CO2. Cells were split 1:5 and fresh media added every 3 days.
Cytotoxicity was assessed using the Alamar Blue-based CellTiter™ Blue Cell Viability Assay (Promega, Madison, Wis.) to determine the viable cell fraction that remained following a 72 hour treatment period. Cells (˜8,000 cells/well) were plated in 96 well BioCoat collagen coated plates (Becton Dickinson, Franklin Lakes, N.J.) using standard media. […] Cells were then allowed to recover for 24 hours at 37° C., 5% CO2. A two (2) fold dilution series was prepared for each compound starting at 3.0 mM in MEM containing 0.1% BSA (instead of 10% FBS) but without phenol red or antibiotics. Following the cell recovery period, the media was removed and fresh media containing compound was added. Treatments were performed in triplicate for each compound at each dose. Cells were incubated with compound for 72 hours at 37° C., 5% CO2. The viable cell fraction remaining was determined by washing the wells with fresh media without indicator, lysing the remaining live cells by adding 0.9% Triton X-100 (Sigma, St. Louis, Mo.) in water, and performing the Alamar Blue assay as described in the CellTiter™ Blue Cell Viability Assay product literature.

HepG2 cells [2] = test: Apoptosis, Apo-ONE Homogeneous Caspase-3/7 Assay; type: cell-based, human; details: 24 hours
[3] = patients; Lebovitz 2002; cited from earlier work
CCR2 mRNA = test: Quantitative Real Time PCR of CCR2 mRNA in TZD-treated cells; details: HepG2 cells, LD50 concentration, 24 hours, compound alone
[4] = HepG2 cells, concentration giving 50% cell death after 72 hours

## CCCCCCCCCCCCCCC(Br)C(=O)O (stereo not drawn) [2-Bromohexadecanoic Acid]
HepG2 cells [1]; [4]
  LD50: 94 µM

## CCCCC/C=C/C=C1/C(=O)C=C[C@@H]1C/C=C\CCCC(=O)O [15-Deoxy-Δ^12,14-Prostaglandin J2]
HepG2 cells [1]
  LD50: 34 µM

## CC(C)(Oc1ccc(CCNC(=O)c2ccc(Cl)cc2)cc1)C(=O)O [Bezafibrate]
HepG2 cells [1]; [4]
  LD50: 1940 µM

## CC1(COc2ccc(CC3SC(=O)NC3=O)cc2)CCCCC1 (stereo not drawn) [Ciglitazone]
HepG2 cells [1]
  cell death at 175 μM: significant cell death
HepG2 cells [1]; human, 72 h
  LD50: 76 µM
HepG2 cells [2]
  induction of apoptosis (Caspase 3/7 activity): potent inducers of apoptosis

## CCOC(=O)C(C)(C)Oc1ccc(Cl)cc1 [Clofibrate]
HepG2 cells [1]; [4]
  LD50: 240 µM

## CCCCC(CC)COC(=O)c1ccccc1C(=O)OCC(CC)CCCC (stereo not drawn) [Diethylhexylphthalate]
HepG2 cells [1]; [4]
  LD50: 34 µM

## CC(C)OC(=O)C(C)(C)Oc1ccc(C(=O)c2ccc(Cl)cc2)cc1 [Fenofibrate]
HepG2 cells [1]; human, 72 h
  LD50: 500 µM

## O=C(Nc1ccccc1)c1cc([N+](=O)[O-])ccc1Cl [GW-9662]
HepG2 cells [1]
  LD50: 125 µM

## Cc1ccc(C)c(OCCCC(C)(C)C(=O)O)c1 [Gemfibrozil]
HepG2 cells [1]; [4]
  LD50: 163 µM

## O=C(O)C(F)(F)C(F)(F)C(F)(F)C(F)(F)C(F)(F)C(F)(F)C(F)(F)F [Perfluourooctanoic Acid]
HepG2 cells [1]; [4]
  LD50: 191 µM

## CCc1ccc(CCOc2ccc(CC3SC(=O)NC3=O)cc2)nc1 (stereo not drawn) [Pioglitazone]
HepG2 cells [2]
  induction of apoptosis (Caspase 3/7 activity): did not induce apoptosis at all or only modestly did so; also recorded: undetectable

## CN(CCOc1ccc(CC2SC(=O)NC2=O)cc1)c1ccccn1 (stereo not drawn) [Rosiglitazone]
HepG2 cells [2]
  induction of apoptosis (Caspase 3/7 activity): did not induce apoptosis at all or only modestly did so

## Cc1c(C)c2c(c(C)c1O)CCC(C)(COc1ccc(CC3SC(=O)NC3=O)cc1)O2 (stereo not drawn) [Troglitazone]
HepG2 cells [1]
  cell death at 175 μM: significant cell death
HepG2 cells [1]; [4]
  LD50: 18 µM
[3]
  toxicity that ended marketing or development: hepatotoxicity
HepG2 cells [2]
  induction of apoptosis (Caspase 3/7 activity): potent inducers of apoptosis
CCR2 mRNA
  increased CCR2 expression relative to control: 6 ×

## Cc1cccc(Nc2cc(Cl)nc(SCC(=O)O)n2)c1C [Wyeth14643]
HepG2 cells [1]
  LD50: 226 µM

## N-Acetly-Asp-Glu-Val-Asp-aldehyde [DEVD]
HepG2 cells [2]; co-administered with TZDs
  block of TZD-induced apoptosis: efficiently blocked
